Data on 4 compounds can be found in publication PMC12364708, “Structures and mechanism of the AUX/LAX transporters involved in auxin import” (Nature Plants, 2025).

Test [1] addresses T1, LAX3 (residues 44–470) (Arabidopsis thaliana, UniProt Q9CA25).
T1 construct: N-terminally truncated, residues 44-470; C-terminal TEV site and His10 tag, cut with TEV; expressed in Saccharomyces cerevisiae DSY-5; LMNG/CHS; 47 kDa
T1 sequence (Q9CA25 44-470): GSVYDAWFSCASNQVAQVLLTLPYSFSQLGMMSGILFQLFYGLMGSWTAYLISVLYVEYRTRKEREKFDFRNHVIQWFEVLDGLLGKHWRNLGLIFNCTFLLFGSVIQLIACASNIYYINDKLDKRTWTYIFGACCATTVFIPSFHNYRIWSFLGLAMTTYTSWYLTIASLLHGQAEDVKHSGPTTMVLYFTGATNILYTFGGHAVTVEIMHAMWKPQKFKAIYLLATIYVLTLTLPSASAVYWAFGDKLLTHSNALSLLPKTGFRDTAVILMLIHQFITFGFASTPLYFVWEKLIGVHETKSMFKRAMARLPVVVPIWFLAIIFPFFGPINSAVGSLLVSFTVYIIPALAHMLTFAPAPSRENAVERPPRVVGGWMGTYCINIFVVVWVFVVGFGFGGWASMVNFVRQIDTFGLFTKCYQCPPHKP
Kind of test: cryo-EM structure, […] Å. As to conditions: pH 7.5; 5 mM IAA; LMNG; central binding pocket, inward semi-occluded.

The next test deals with T2, LAX3 (Arabidopsis thaliana, UniProt Q9CA25).
T2 construct: full-length wild type, cRNA injected into Xenopus laevis oocytes
T2 sequence (Q9CA25 1-470): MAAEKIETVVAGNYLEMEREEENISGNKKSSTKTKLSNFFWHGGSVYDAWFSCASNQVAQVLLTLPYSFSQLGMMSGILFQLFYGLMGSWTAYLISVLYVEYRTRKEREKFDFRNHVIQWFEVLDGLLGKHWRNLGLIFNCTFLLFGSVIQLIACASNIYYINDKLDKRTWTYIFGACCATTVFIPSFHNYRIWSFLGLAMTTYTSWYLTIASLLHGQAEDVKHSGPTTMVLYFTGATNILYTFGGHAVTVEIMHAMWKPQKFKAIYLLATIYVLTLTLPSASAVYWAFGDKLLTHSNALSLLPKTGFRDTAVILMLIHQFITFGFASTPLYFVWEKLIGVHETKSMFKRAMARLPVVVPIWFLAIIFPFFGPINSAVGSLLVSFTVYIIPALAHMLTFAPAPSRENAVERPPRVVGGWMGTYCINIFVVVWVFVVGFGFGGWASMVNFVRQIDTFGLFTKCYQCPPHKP
Kind of test: competition with 3H-IAA uptake into Xenopus oocytes. The format is cell-based. As to conditions: 100 nM 3H-IAA; pH 6, room temperature, 8 min; competitive.

For test [2], the target named is T1, LAX3 (residues 44–470). Kind of test: cryo-EM structure, […] Å. To be noted: pH 7.5; 5 mM 2-NOA; LMNG; central binding pocket, fully occluded.

Regarding `O=C(O)Cc1c[nH]c2ccccc12` [IAA], the “cryo-EM structure, 3.21 Å” value at LAX3 (residues 44–470) [1] was “IAA-bound LAX3 inward semi-occluded: PDB 9H61 and EMD-51894”. As to `O=C(O)COc1ccc2ccccc2c1` [2-NOA], the “inhibition of IAA uptake at 10 μM” value on LAX3 is on record as “these data demonstrate a competitive effect of all three compounds”. In addition, at LAX3 (residues 44–470) [2], the “cryo-EM structure, 2.88 Å” value is 2-NOA bound LAX3 fully occluded: PDB 9H63 and EMD-51896. Turning to `O=C(O)COc1ccc(Cl)cc1Cl` [2,4-D], the “inhibition of IAA uptake at 10 μM” value on LAX3 is “these data demonstrate a competitive effect of all three compounds”. With `O=C(O)COc1cccc2ccccc12` [1-NOA], the “inhibition of IAA uptake at 10 μM” value on LAX3 is “these data demonstrate a competitive effect of all three compounds”.
